Laboratory results from patent publication US6166045A, “Torasemide of modification III” (Roche Diagnostics GmbH, priority 1998, dated 2000).
Where two headings read alike, the source gives them in different places. One block for each compound: values may come before it.

Experiments:
[1] = literature (Acta Cryst. 1978), cited from earlier work
[2] = Water content after storing in relative humidity of 92% at 25° C.; format: physicochemical; details: 92% relative humidity, Mod. III depending on particle size
Protocol: Relevant data of the two most important crystal forms (modification I and III) of torasemide are summarized in Table 1. | Water content (%) after storing in relative 0.2 1.2 (depending | humidity of 92% at 25° C. on particle size

[3] = Heat of fusion / heat of transition (DSC); format: physicochemical; details: for Heat of fusion ± 95% - C.B.: heating rate 5K min^-1
[4] = Heat of solution; format: physicochemical; details: in I-butanol at 20° C.
Protocol: Relevant data of the two most important crystal forms (modification I and III) of torasemide are summarized in Table 1. | Heat of solution (kJ mol^-1) in I-butanol at 20° C. 36.1

[5] = True density; format: physicochemical
Protocol: One aspect of the present invention involves pure torasemide of modification III. It is believed that pure torasemide of modification III was previously unknown to the art. Torasemide of modification III can be characterized by a melting point of 155 to 158° C. (thermomicroscopy) and a true density of 1.302±0.009 g cm^-3 (versus 1.363±0.001 g cm^3 for modification I). In a preferred embodiment, the torasemide of modification III is pure. This term "pure" means that the torasemide contains less than about 1% of modification I and/or II, and less in any event than amounts of modification I which adversely effect the stability of modification III.
True density (g cm^-3) ± 95% - c.i.

[6] = prior art (U.S. Re 34,672 and 34,580); listed as modification I; cited from earlier work
[7] = Serum concentration of torasemide in rats after oral administration; format: in vivo, Wistar rat; details: male rats (FIG. 1); for Serum concentration compared with modification I: oral 3 mg per kilogram
Protocol: FIG. 1 is a plot of serum concentration levels in male rats of torasemide of modification I and modification III versus time after oral administration; and FIG. 2 is similar to FIG. 1, but reflects the serum concentrations in female rats. […] Therefore, both genders were tested to determine the concentration of torasemide in serum against the time after administration. The dose of torasemide was 3 mg per kilogram, administered orally. FIG. 1 is a graph illustrating the concentration in the serum of male rats of torasemide, as a result of administering modification I and modification III. FIG. 2 is a representation of the concentration of torasemide versus time after administration for the serum of female rats, treated the same as the male rats of FIG. 1.

[8] = Storage stability of the crystal modification; format: physicochemical; details: storage stable: tablet form, ambient conditions, less than 5% changing into another crystalline form over six months
[9] = Diuretic effect; details: in vivo
[10] = in vivo; cited from earlier work
[11] = test system: sodium-potassium-2 chloride transport mechanism in the ascending limb of the loop of Henle; details: cited from earlier work
[12] = male versus female Wistar rats; P-450 oxidation products; cited from earlier work

Structure (SMILES): Cc1cccc(Nc2ccncc2S(=O)(=O)NC(=O)NC(C)C)c1 [Modification II]
- True density ([1]; in g/cm3 (unit assumed)): 1.285

- Water content after storing in relative humidity of 92% at 25° C. ([2]; listed as Mod. I): 0.2%
- Heat of fusion ± 95% - C.B. [3]: 8.89 ± 0.454 kcal/mol
- Heat of solution [4]: 8.63 kcal/mol
- True density ± 95% - c.i. ([5]; listed as Mod. I): 1.363 ± 0.001 g cm^-3
Structure (SMILES): Cc1cccc(Nc2ccncc2S(=O)(=O)NC(=O)NC(C)C)c1 [Modification I]
- True density [1]: about 1.36
- Stability / rearrangement in tablets or on storage [6]: stable in tablets and did not rearrange again back into modification II

- Water content after storing in relative humidity of 92% at 25° C. ([2]; listed as Mod. III): 1.2%
- Heat of transition ± 95% - C.B. ([3]; at about 159° C., the difference of the heats of fusion, ± 2.1 printed on next line): -19.6 kcal/mol
- Heat of fusion ± 95% - C.B. ([3]; listed as Mod. III): 7.15 ± 0.22 kcal/mol
- Heat of solution ([4]; listed as Mod. III): 7.12 kcal/mol
- True density ± 95% - c.i. ([5]; listed as Mod. III): 1.302 ± 0.009 g cm^-3
- True density ± 95% - c.i. ([5]; listed as modification III): 1.302±0.009 g cm^-3
- Appearance in the serum after oral administration ([7]; oral): rapid appearance
- Stability of the crystal modification [8]: storage stable
Structure (SMILES): Cc1cccc(Nc2ccncc2S(=O)(=O)NC(=O)NC(C)C)c1 [Modification III]
- Serum concentration compared with modification I ([7]; 20 minutes after administration): more than twice the serum concentration as modification I
- Serum concentration compared with modification I ([7]; 40 minutes after administration): almost twice the serum concentration as modification I
- Diuretic effect [9]: effective diuretic

Structure (SMILES): Cc1cccc(Nc2ccncc2S(=O)(=O)NC(=O)NC(C)C)c1 [Torasemide, 1-isopropyl-3-[(4-m-toluidino-3pyridyl)sulphonyl)urea]
- Diuresis profile compared with other standard loop diuretics [10]: less intense initial diuresis and a sustained duration of action
- Mechanism of action [11]: blocks the sodium-potassium-2 chloride transport mechanism in the ascending limb of the loop of Henle
- Difference between male and female rats in excretion rate and metabolism [12]: significant differences
